Where a SMILES comes first, the peptide text is derived from it. The star is where a group is joined. DOTA = O=C(O)CN1CCN(CC(=O)O)CCN(CC(=O)*)CCN(CC(=O)O)CC1
Key:
[1] = Urine analyses by RP-HPLC after i.v. injection; type: in vivo; conditions: mice, urine from bladder at 1 h post-injection
Protocol: ^67Ga-DOTA-(L-Asp)14 was prepared according to a method described previously. ^67Ga-DOTA-(L-Asp)14 or ^67Ga-DOTA-(D-Asp)14 solution (370 kBq / 200 μL) was intravenously injected to 6-week-old male ddY mice. At 1 h post-injection, mice were sacrificed and their […] were taken from the bladders. After ultrafiltration (Microcon-30, Merck KGaA), the filtrate samples were analyzed by RP-HPLC at a flow rate of 1 mL/min with a gradient mobile phase from water containing 0.1% TFA to 20% methanol in water containing 0.1% TFA for 20 min.

[2] = design: method as in PMID 24391942; conditions: normal mice; cited from earlier work

SMILES: O=C(O)C[C@H](NC(=O)[C@H](CC(=O)O)NC(=O)[C@H](CC(=O)O)NC(=O)[C@H](CC(=O)O)NC(=O)[C@H](CC(=O)O)NC(=O)[C@H](CC(=O)O)NC(=O)[C@H](CC(=O)O)NC(=O)[C@H](CC(=O)O)NC(=O)[C@H](CC(=O)O)NC(=O)[C@H](CC(=O)O)NC(=O)[C@H](CC(=O)O)NC(=O)[C@H](CC(=O)O)NC(=O)[C@H](CC(=O)O)NC(=O)[C@H](CC(=O)O)NC(=O)CN1CCN(CC(=O)O)CCN(CC(=O)O)CCN(CC(=O)O)CC1)C(=O)O [^67Ga-DOTA-(L-Asp)14, metal not drawn] ({DOTA}-DDDDDDDDDDDDDD-OH)
- Ratio of the intact complex in urine [1]: 55.0 ± 13.9%
- Accumulation in bone (in words) [2]: high accumulation in bone
- Blood clearance (in words) [2]: rapid blood clearance
